Entries after “also recorded” stand apart in the source; their conditions may differ.
Columns and labels:
superoxide dismutase = test: Superoxide dismutase activity assay in hMSC; assay type: cell-based, human; conditions: 5 mM RRx-001 16 hours; 8 hours after 10 Gy irradiation
Procedure: The activity of superoxide dismutase activity was also assayed in hMSC. hMSC were treated for 16 hours with […] RRx-001 or vehicle, irradiated at 10 Gy or sham-irradiated and whole cell homogenate collected according to the manufacture's protocol. The assay measures the activity of all three forms of SOD. The amount of SOD activity (U/mL) was normalized to protein levels.

THP-1 cells = test: Cytokine array of irradiated THP-1 monocytes and macrophages; assay type: cell-based, human
Procedure: A cytokine array was employed to examine cytokine expression following in vitro irradiation of human monocytic leukemic THP-1 cells. THP-1 cells were differentiated into macrophages with 50 nM Phorbol 12-myristate 13-acetate (PMA) for 24 hours before treatment. Differentiated and non-differentiated cells were treated with […] RRx-001 or 0.05% DMSO (vehicle control) for 16 hours prior to radiation. The cells were irradiated at 5 Gy or sham-irradiated and collected 4-8 hours later for both analysis. For the cytokine analysis, cell media was collected and blotted onto Proteome Profiler Human Cytokine Arrays (R&D Systems, Inc.) according to the manufacturer's protocol.

How did the “Superoxide Dismutase Activity” value (superoxide dismutase) turn out when `O=C(CBr)N1CC([N+](=O)[O-])([N+](=O)[O-])C1` [RRx-001, 2-bromo-1-(3,3-dinitroazetidin-1-yl)ethan-1-one] was run?
Its value is “did not increase”.

And the “cytokines involved in inflammation” value (THP-1 cells; THP-1 macrophage fraction, sham and 5 Gy irradiated, 3 mM RRx-001 16 hours)?
The value was “reduction in cytokines involved in inflammation”.

And the “pro-inflammatory chemokine IL-8” value (THP-1 cells; THP-1 macrophages)?
Its value is “reduction”.

What about the CCL5/RANTES expression (THP-1 cells; THP-1 monocytes, 3 mM RRx-001 16 hours) of the same compound?
Its CCL5/RANTES expression is “induction; also recorded: upregulation”.

— patent publication US12357608B2, “Methods and compositions utilizing RRx-001 combination therapy for radioprotection” (priority 2018, dated 2025)
